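The compound was tested at five concentrations on cells cultured in 96-well plates, with a 48-hour exposure period. Abbreviation: GI50, concentration required for 50% inhibition of growth. TGI: concentration producing complete growth inhibition.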
Columns and labels:
Test in all cases: DTP human tumour cell line panel, 48 h
786-0 renal = tested on: 786-0 renal
HCT-15 colon = tested on: HCT-15 colon
LXFL 529 NSCLC = tested on: LXFL 529 NSCLC
OVCAR-3 ovarian = tested on: OVCAR-3 ovarian
SK-MEL-28 melanoma = tested on: SK-MEL-28 melanoma
SR leukemia = tested on: SR leukemia
KM20L2 colon = tested on: KM20L2 colon
NCI/ADR-RES ovarian = tested on: NCI/ADR-RES ovarian
UO-31 renal = tested on: UO-31 renal
PC-3 prostate = tested on: PC-3 prostate

Structure (SMILES) | TGI (786-0 renal) | TGI (HCT-15 colon) | TGI (LXFL 529 NSCLC) | TGI (OVCAR-3 ovarian) | TGI (SK-MEL-28 melanoma) | TGI (SR leukemia) | GI50 (HCT-15 colon) | TGI (KM20L2 colon) | GI50 (NCI/ADR-RES ovarian) | GI50 (OVCAR-3 ovarian) | GI50 (UO-31 renal) | TGI (UO-31 renal) | GI50 (786-0 renal) | TGI (NCI/ADR-RES ovarian) | GI50 (PC-3 prostate) | TGI (PC-3 prostate) | GI50 (SK-MEL-28 melanoma) | GI50 (SR leukemia)
CCC1C(C)c2c([nH]c3ccccc23)C2C(=O)N(c3ccccc3)C(=O)C21 (stereo not given) | 34.5 µM | 31.2 µM | 96.2 µM | 27.1 µM | 33.4 µM | 47.3 µM | – | – | – | – | – | – | – | – | – | – | – | –
Cc1c[nH]c2c1C13CC1CN(C(=O)c1cc4cc(NC(=O)c5cc6ccccc6o5)ccc4[nH]1)C3=CC2=O (stereo not given) | < 0.001 µM | < 0.001 µM | – | – | – | < 0.001 µM | > 1.17 ng/mL | < 0.001 µM | > 1.17 ng/mL | > 1.17 ng/mL | > 1.17 ng/mL | – | – | – | – | – | – | –
OCC(O)C(O)c1nn(-c2ccccc2)c2nc3cc(Cl)c(Cl)cc3nc12 (stereo not given) | 68.4 µM | > 100 µM | 70.9 µM | 92.1 µM | > 100 µM | – | – | 75.8 µM | – | – | – | 63.5 µM | – | – | – | – | – | –
COc1cc([C@@H]2c3cc4c(cc3[C@@H](NC(=O)c3ccc(N)cc3)C3COC(=O)[C@@H]32)OCO4)cc(OC)c1O (stereo not given in full) | 3.84 µM | 32 µM | > 100 µM | 30.4 µM | 50.8 µM | – | – | 9.57 µM | – | – | – | 31.1 µM | – | – | – | – | – | –
CC#C[C@@]1(O)CCCC[C@@H]1O | > 100 µM | > 100 µM | – | > 100 µM | > 100 µM | – | – | > 100 µM | – | – | – | > 100 µM | – | – | – | – | – | –
Nc1nc2c(ncn2C2OC(CO)C(O)C2N)c(=O)[nH]1 (stereo not given) | > 100 µM | > 100 µM | > 100 µM | > 100 µM | > 100 µM | – | – | – | – | – | – | > 100 µM | – | – | – | – | – | –
O=C1C2c3[nH]c4ccccc4c3[C@@H]3CCCCCCCCCCC3C2C(=O)N1c1ccccc1 (stereo not given in full) | 35.7 µM | > 100 µM | 28.1 µM | 33 µM | 58.8 µM | 43.3 µM | – | – | – | – | – | > 100 µM | – | – | – | – | – | –
Cc1ccc(Cl)cc1Nc1nc(C(F)(F)F)ccc1C(=O)Nc1cccc(C(F)(F)F)c1 | 11.8 µM | 14.9 µM | – | 20.1 µM | 18.3 µM | 30.3 µM | 3.67 µM | – | 2.13 µM | 4.18 µM | 2.84 µM | 12.7 µM | 3.16 µM | 7.66 µM | 2.07 µM | 13.4 µM | 4.55 µM | 3.41 µM
CCSc1oc(-c2ccccc2)nc1[P+](c1ccccc1)(c1ccccc1)c1ccccc1 | 2.11 µM | 4.66 µM | – | 1.7 µM | 2.32 µM | 24.2 µM | 0.622 µM | – | 2.29 µM | 0.268 µM | 0.321 µM | 1.38 µM | 0.376 µM | 9.58 µM | 0.213 µM | 1.44 µM | 0.467 µM | 0.377 µM
CC(C)C[C@H](NC(=O)[C@H](CCc1ccccc1)NC(=O)CN1CCOCC1)C(=O)N[C@@H](Cc1ccccc1)C(=O)N[C@@H](CC(C)C)C(=O)[C@@]1(C)CO1 | 0.332 µM | 1.6 µM | – | 0.0172 µM | 1.57 µM | > 100 µM | 0.083 µM | – | 0.636 µM | < 0.01 µM | 0.116 µM | 0.575 µM | 0.0311 µM | > 100 µM | 0.0247 µM | 0.305 µM | 0.0475 µM | 0.0149 µM
CCOC(=O)C1N(S(=O)(=O)c2ccc(C)cc2)CCC12c1ccccc1N(C(C)=O)C2C(/C=C/C(=O)OC)=C/C(=O)OC (stereo not given) | > 100 µM | – | > 100 µM | > 100 µM | > 100 µM | – | – | > 100 µM | – | – | – | > 100 µM | – | – | – | – | – | –
N#Cc1cccc(NC(=O)c2ccc(C(=O)O)c(C(=O)c3ccc(C(=O)O)c(C(=O)Nc4cccc(C#N)c4)c3)c2)c1 | > 100 µM | > 100 µM | > 100 µM | > 100 µM | – | – | – | > 100 µM | – | – | – | > 100 µM | – | – | – | – | – | –
O=C(NCc1cccnc1)/C(=C\c1ccc(Br)cc1)S(=O)(=O)c1ccccc1 | 2.44 µM | 2.27 µM | – | 1.7 µM | 2.55 µM | 2.36 µM | 0.536 µM | – | 1.75 µM | 0.419 µM | 0.904 µM | 2.21 µM | 1.15 µM | 5.43 µM | 1.06 µM | 2.61 µM | 1.11 µM | 0.309 µM
Cn1cnc([N+](=O)[O-])c1Sc1ccccn1 | > 100 µM | – | > 100 µM | > 100 µM | > 100 µM | > 100 µM | – | – | – | – | – | > 100 µM | – | – | – | – | – | –
CCN1CCN(c2nc(NNC(=O)Cc3ccccc3)nc(N3CCN(C(c4ccccc4)c4ccccc4)CC3)n2)CC1 | 3.14 µM | 3.76 µM | – | 4.08 µM | 2.98 µM | 5.31 µM | 1.9 µM | – | 3.37 µM | 2 µM | 1.39 µM | 2.82 µM | 1.74 µM | 14 µM | 2.51 µM | 8.61 µM | 1.6 µM | 1.92 µM
COc1ccc(C(=O)c2cc(OC)c(OC)c(OC)c2)cc1OC(C)=O | > 100 µM | > 100 µM | – | 0.0848 µM | > 100 µM | > 75.2 µM | < 0.0136 µM | – | < 0.0153 µM | 0.0292 µM | 0.195 µM | > 100 µM | 0.672 µM | > 100 µM | 0.0208 µM | > 100 µM | 11.2 µM | < 0.01 µM
CC[C@@]1(O)C(=O)NCc2c1cc1n(c2=O)Cc2cc3ccccc3nc2-1 | 9.93 µM | > 100 µM | – | > 100 µM | > 100 µM | 0.503 µM | 25.8 µM | – | 2.92 µM | 34.4 µM | 1.77 µM | 13.1 µM | 1.63 µM | > 48.2 µM | 7.57 µM | > 100 µM | > 53.7 µM | 0.123 µM
COc1cc(C)c(C(=O)O[C@H]2[C@H](O[C@H]3[C@@H](O)COC(O[C@H]4C[C@H]5[C@@H]6CC=C7C[C@@H](O)CC[C@]7(C)[C@H]6CC[C@]5(C)[C@H]4[C@H](C)C(=O)CCC(C)C)[C@@H]3OC(C)=O)OC[C@@H](O)[C@@H]2O)c(C)c1 (stereo not given in full) | 2.55 µM | 1.94 µM | – | 22 µM | 0.0192 µM | 21.1 µM | 0.0543 µM | – | 4.79 µM | 2.77 µM | < 0.01 µM | 0.0584 µM | < 0.01 µM | 31.2 µM | < 0.01 µM | 2.4 µM | < 0.01 µM | < 0.01 µM
C=C(C=O)C1CC(=O)C(C(=O)OC)[C@@H]2O[C@@](C)(CC2=O)C[C@@H]2OC(=O)[C@]3(O[C@@H]23)[C@@H](C(=O)OC)C1 (stereo not given in full) | 51 µM | 38.5 µM | – | 32.8 µM | 66.5 µM | 7.96 µM | 16.2 µM | – | 46.4 µM | 12.8 µM | 19 µM | 48.9 µM | 19.3 µM | > 100 µM | 19.3 µM | 57.6 µM | 20.2 µM | 2.63 µM
CCN(CC)CCN1C(=O)c2c(c(C)c3c(oc4cc(O)ccc43)c2C)C1=O | 3.2 µM | 3.32 µM | – | 3.34 µM | 3.03 µM | > 100 µM | 1.69 µM | – | 1.66 µM | 1.78 µM | 1.48 µM | 2.81 µM | 1.62 µM | 3.26 µM | 1.5 µM | 3.22 µM | 1.58 µM | 1.89 µM
C/C(=C\c1ccc(Cl)cc1)C(C)(C)C(=O)O | > 100 µM | > 100 µM | – | > 100 µM | > 100 µM | > 100 µM | – | – | – | – | – | > 100 µM | – | > 100 µM | – | > 100 µM | – | –
O=C1c2ccccc2C(=O)c2c1ccc(C(Br)Br)c2[N+](=O)[O-] | 3.45 µM | 2.93 µM | – | 3.04 µM | 6.56 µM | 1.75 µM | 1.52 µM | – | 2.01 µM | 1.63 µM | 1.52 µM | 2.93 µM | 1.85 µM | 6.56 µM | 1.74 µM | 3.47 µM | 2.63 µM | 0.259 µM
CC(=O)OCC1OC(OC2C(COC(C)=O)OC(OCCC[S-])C(OC(C)=O)C2OC(C)=O)C(OC(C)=O)C(OC(C)=O)C1OC(C)=O.[Au+].c1ccc(CN2[CH-]N(Cc3ccccc3)C(c3ccccc3)=C2c2ccccc2)cc1 (stereo not given) | 8.56 µM | 12.2 µM | – | 8.48 µM | 18.5 µM | 20.6 µM | 3.17 µM | – | 19.5 µM | 2.62 µM | 2.61 µM | 10.7 µM | 2.8 µM | > 100 µM | 3.28 µM | 15 µM | 3.53 µM | 2.61 µM
Cc1cc(C)cc(-n2c3nc(=O)n(C)c(=O)c-3nc3ccccc32)c1 | > 100 µM | 73 µM | > 100 µM | 12.6 µM | – | – | – | 52.9 µM | – | – | – | > 100 µM | – | – | – | – | – | –
O=P(Oc1ccc(Cl)cc1)(Oc1ccc(Cl)cc1)N1CC1 | > 10 µM | > 10 µM | – | > 10 µM | > 10 µM | > 10 µM | – | – | – | – | – | > 10 µM | – | > 10 µM | – | > 10 µM | – | –
COc1ccc(-c2ccc3c(NC(=O)C4CC4)n[nH]c3n2)cc1 | > 25 µM | > 25 µM | – | > 25 µM | > 25 µM | > 25 µM | > 25 µM | – | > 25 µM | > 25 µM | > 20 µM | > 25 µM | > 20.1 µM | > 25 µM | > 25 µM | > 25 µM | > 25 µM | > 25 µM

Reference: PubChem BioAssay (NCI)
